Reference: ChEMBL document CHEMBL5126656, “Callintegers A and B, Unusual Tricyclo[4.4.0.09,10]tetradecane Clerodane Diterpenoids from Callicarpa integerrima with Inhibitory Effects on NLRP3 Inflammasome Activation” (J Nat Prod, 2022)
Activity calls are given as the source filed them. The calls are words filed in the database; no cut-off is given here.

Key:
[1] = biological target: NACHT, LRR and PYD domains-containing protein 3 (Mus musculus) (UniProt Q8R4B8); assay: Inhibition of NLRP3 inflammasome activation in LPS/nigericin-treated mouse J774A.1 cells assessed as decrease in pyroptosis at 20 uM pretreated for 0.5 hrs followed by stimulation with nigericin for 1 hr by fluorescent microscopic analysis; type: cell-based; details: J774.A1, time 1.5 hrs
NACHT, LRR and PYD domains-containing protein 3 (Mus musculus), sequence (Q8R4B8 whole entry, the tested form may be a part): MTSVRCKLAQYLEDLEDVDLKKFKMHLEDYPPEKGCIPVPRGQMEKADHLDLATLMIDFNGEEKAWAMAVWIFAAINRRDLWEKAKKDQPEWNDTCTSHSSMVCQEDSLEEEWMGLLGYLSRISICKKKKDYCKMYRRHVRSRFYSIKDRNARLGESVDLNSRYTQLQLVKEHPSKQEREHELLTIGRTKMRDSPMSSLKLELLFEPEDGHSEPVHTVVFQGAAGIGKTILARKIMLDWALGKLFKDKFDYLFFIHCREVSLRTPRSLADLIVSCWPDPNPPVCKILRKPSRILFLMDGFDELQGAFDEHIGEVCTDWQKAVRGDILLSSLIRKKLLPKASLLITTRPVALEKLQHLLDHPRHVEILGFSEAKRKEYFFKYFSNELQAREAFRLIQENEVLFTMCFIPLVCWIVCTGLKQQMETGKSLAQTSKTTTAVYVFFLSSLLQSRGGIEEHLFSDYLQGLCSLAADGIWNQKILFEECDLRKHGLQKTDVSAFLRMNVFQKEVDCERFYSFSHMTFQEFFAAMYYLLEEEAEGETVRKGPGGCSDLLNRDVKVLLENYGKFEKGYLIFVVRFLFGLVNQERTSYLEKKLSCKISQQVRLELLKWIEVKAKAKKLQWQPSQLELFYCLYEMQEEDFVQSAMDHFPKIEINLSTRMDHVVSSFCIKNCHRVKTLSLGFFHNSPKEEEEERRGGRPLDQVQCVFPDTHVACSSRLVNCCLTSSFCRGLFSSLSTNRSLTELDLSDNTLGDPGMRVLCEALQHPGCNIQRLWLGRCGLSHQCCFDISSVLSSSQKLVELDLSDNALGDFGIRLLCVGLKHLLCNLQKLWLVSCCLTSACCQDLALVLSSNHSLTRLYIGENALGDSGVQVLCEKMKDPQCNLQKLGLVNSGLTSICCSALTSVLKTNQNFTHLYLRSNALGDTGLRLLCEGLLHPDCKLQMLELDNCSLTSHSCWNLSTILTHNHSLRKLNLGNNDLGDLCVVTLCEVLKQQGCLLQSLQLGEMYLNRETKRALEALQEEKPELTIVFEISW

[2] = biological target: NACHT, LRR and PYD domains-containing protein 3 (Mus musculus, UniProt Q8R4B8); assay: Inhibition of NLRP3 inflammasome activation in LPS/nigericin-treated mouse J774A.1 cells assessed as decrease in IL-1beta level pretreated for 0.5 hrs followed by stimulation with nigericin for 1 hr by ELISA; type: cell-based, J774.A1
NACHT, LRR and PYD domains-containing protein 3, sequence (Q8R4B8 whole entry, the tested form may be a part): as above

[3] = biological target: NACHT, LRR and PYD domains-containing protein 3 (Mus musculus) (UniProt Q8R4B8); assay: Inhibition of NLRP3 inflammasome activation in LPS/nigericin-treated mouse J774A.1 cells assessed as decrease in IL-1beta level pretreated for 0.5 hrs followed by stimulation with nigericin for 1 hr by Western blot analysis; type: cell-based; details: J774.A1, time 1.5 hrs
[4] = biological target: NACHT, LRR and PYD domains-containing protein 3 (Mus musculus) (UniProt Q8R4B8); assay: Inhibition of NLRP3 inflammasome activation in LPS/nigericin-treated mouse J774A.1 cells assessed as decrease in caspase-1 level pretreated for 0.5 hrs followed by stimulation with nigericin for 1 hr by Western blot analysis; type: cell-based; details: J774.A1, time 1.5 hrs

inhibition [1]	IC50 [2] [nM]	inhibition [3]	inhibition [4]	SMILES
Active	5500	Active	Active	C=C1[C@@H](OC(C)=O)CC[C@]23C=C(C=O)[C@@H](OC(C)=O)C[C@@]2(C)[C@H](C)CC[C@@]13C
	23.1			CC(C)(O)c1coc(S(=O)(=O)NC(=O)Nc2c3c(cc4c2CCC4)CCC3)c1
